# Test system: Primary Human Gingival Fibroblast (HGF)
# Test: In-vitro 2D tissue damage assay via Collagen-1 marker (Collagen-1 ELISA after TBHP challenge)
# Type: cell-based
# Conditions: 0.5% gel dilution 24 hr, 50 μM TBHP 1 hr, 24 hr in complete media; supernatant
# Procedure: In vitro gingival 2D gingival fibroblast tissue damage/prevention was used to assess the effects of treatment with Inventive Compositions and Comparative compositions on collagen-1 ELISA assay.
# The obtained tissues were kept in cold Dulbecco's modified Eagle's medium (DMEM, Gibco) with 10% fetal bovine serum and a cocktail of antibiotics and antimycotics. Next, the tissues were minced with a blade and spun down at 4° C. and 200×g for 5-10 minutes to separate and wash the pellets. Resuspended tissue explants were laid onto a 60 mm dish and kept in an incubator. Every 3-5 days during culture, fibroblasts grown from tissue explants were washed and continued under passage using 0.2% trypsin. Proliferation tests and cell damage recovery experiments were performed when the fibroblasts reached passages 3-10.
# Primary Human gingival fibroblast (HGF) cell was maintained in a 37° C. incubator with 5% CO2 saturation. Dulbecco's modified Eagle's medium (DMEM, Gibco) containing 10% fetal calf serum, 1% penicillin-streptomycin was used as the complete culture medium, which was changed every 2-3 days.
# 1.8×10^5 Cells were seeded in a 6-well plate and cultured with complete medium in at 37° C. and 5% CO2 for 24 hr. […] The supernatant of cell culture was collected and analysed by Collagen-1 ELISA kit (CUSABIO).
substance,measurement,value
TGF-B [Positive control (TGF-B)],Collagen-1,155.59 ng/mL

# Source: patent US12582593B2, “Oral care compositions for gum health” (The Procter & Gamble Company, priority 2021, dated 2026)
